Measurements taken from patent publication US20190275012A9, “SUBSTITUTED THIAZOLO-PYRIDINE COMPOUNDS AS MALT1 INHIBITORS” (Lupin Limited, priority 2016, published 2019).

Assays:
full length MALT1 enzyme = target: T1, full length MALT1 enzyme (Homo sapiens, UniProt Q9UDY8); experiment: MALT1 biochemical assay (fluorescence based, Ac-Leu-Arg-Ser-Arg-AMC cleavage); conditions: full length MALT1 protein, 2 h pre-incubation at RT, tetrapeptide substrate Ac-Leu-Arg-Ser-Arg-AMC, read-out: Malt 1 inhibition IC50
T1 construct: a fluorescence based assay with full length MALT1 enzyme
T1 sequence (Q9UDY8 1-824): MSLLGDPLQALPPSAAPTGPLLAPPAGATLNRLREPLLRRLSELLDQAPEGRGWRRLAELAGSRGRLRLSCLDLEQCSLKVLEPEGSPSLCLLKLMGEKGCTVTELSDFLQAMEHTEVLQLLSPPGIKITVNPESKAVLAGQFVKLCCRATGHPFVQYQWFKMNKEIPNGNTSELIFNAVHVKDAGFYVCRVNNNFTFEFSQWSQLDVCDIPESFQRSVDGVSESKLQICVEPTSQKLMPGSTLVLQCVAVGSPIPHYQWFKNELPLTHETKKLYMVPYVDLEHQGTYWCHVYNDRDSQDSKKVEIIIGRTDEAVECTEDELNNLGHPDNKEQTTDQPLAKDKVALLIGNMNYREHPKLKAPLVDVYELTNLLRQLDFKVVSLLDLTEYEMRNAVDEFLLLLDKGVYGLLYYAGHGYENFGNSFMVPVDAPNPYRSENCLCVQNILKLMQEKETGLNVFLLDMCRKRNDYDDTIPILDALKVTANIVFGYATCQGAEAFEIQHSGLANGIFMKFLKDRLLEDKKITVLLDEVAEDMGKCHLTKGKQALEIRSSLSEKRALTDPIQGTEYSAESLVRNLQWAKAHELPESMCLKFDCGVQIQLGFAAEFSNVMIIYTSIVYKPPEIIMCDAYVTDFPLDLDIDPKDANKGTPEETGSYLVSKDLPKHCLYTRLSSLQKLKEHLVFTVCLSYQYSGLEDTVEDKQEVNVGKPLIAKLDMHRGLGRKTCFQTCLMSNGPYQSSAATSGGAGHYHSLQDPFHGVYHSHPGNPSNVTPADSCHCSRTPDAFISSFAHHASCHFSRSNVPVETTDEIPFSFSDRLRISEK
In short: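 Full-length MALT1 (100-300 ng/well) was pre-incubated with compound for 2 h at RT, then 100 μM Ac-LRSR-AMC was added for 4-12 h. Buffer was 50 mM MES, 150 mM NaCl, 0.1% CHAPS, 1 M ammonium citrate, 10 mM DTT, pH 7, with 0.5% DMSO. IC50 was derived from AMC fluorescence (ex 360/em 460 nm).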

OCI-Ly-10 cells = experiment: Anticancer assay (14 days), cell viability by CCK-8; format: cell-based; conditions: Homo sapiens, OCI-Ly10, 336 h, 14 days treatment, fresh treatment every 5th day, CCK-8 viability, read-out: Ly-10 (14d) inhibition IC50
Experimental: OCI-Ly-10 cells (UHN, Canada) seeded in culture media (IMDM+20% FBS) in 96-well plates were treated with various concentrations of the test compounds. Cells were treated for a period of 14 days (13-15 days depending on the confluency of cells) with fresh treatments every 5th day. After the first treatment, for all subsequent treatments, the cells were centrifuged, the spent media was removed and fresh media containing the test compound was added. Cell viability was assessed using CCK-8 kit (Dojindo Laboratories, China) as per manufacturer's instructions. Plates were read in colorimeter and absorbance was detected. (Detection at 450 nm; Background correction at 650 nm). % inhibition was calculated relative to the samples containing media with 0.1% DMSO alone as per the following formula

[1] = system: NF-kB transcriptional activity in HEK-293-NF-kB-Luc cell line overexpressing MALT1; experiment: NF-kB reporter assay (luciferase, MALT1 stably overexpressed); format: cell-based; conditions: Homo sapiens, 24 h, HEK-293-NF-kB-Luc cells stably overexpressing MALT1, 24 h treatment, Bright Glo luminescence; read-out: NF-kB inhibition IC50
In short: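 Inhibition of NF-κB activity was expressed relative to 0.1% DMSO wells, from luminescence after 10 min Bright Glo at ambient temperature. Compounds had been applied for 24 h to adhered MALT1-overexpressing HEK-293 NF-κB luciferase reporter cells.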

| SMILES | IC50 (full length MALT1 enzyme) | IC50 (OCI-Ly-10 cells) | IC50 [1] |
| --- | --- | --- | --- |
| COc1cc(-n2nccn2)c(Cl)cc1NC(=O)Nc1cnc2sc(C)nc2c1C(C)OC (single isomer, unassigned) [Compound 131b, 1-(5-Chloro-2-methoxy-4-(2H-1,2,3-triazol-2-yl)phenyl)-3-(7-(1-methoxyethyl)-2-methylthiazolo[5,4-b]pyridin-6-yl)urea] | 1 to 50 nM | 0.1 to 25 nM |  |
| CCC(OC)c1c(NC(=O)Nc2cnc(-n3nccn3)c(C(F)(F)F)c2)cnc2sc(C)nc12 (single isomer, unassigned) [Compound 146b, 1-(6-(2H-1,2,3-Triazol-2-yl)-5-(trifluoromethyl)pyridin-3-yl)-3-(7-(1-methoxypropyl)-2-methylthiazolo[5,4-b]pyridin-6-yl)urea] | 1 to 50 nM | 0.1 to 25 nM |  |
| COC(c1c(NC(=O)Nc2cnc(-n3nccn3)c(C(F)(F)F)c2)cnc2sc(C)nc12)C1CC1 (single isomer, unassigned) [Compound 151b, 1-(6-(2H-1,2,3-Triazol-2-yl)-5-(trifluoromethyl)pyridin-3-yl)-3-(7-(cyclopropyl(methoxy)methyl)-2-methylthiazolo[5,4-b]pyridin-6-yl)urea] | 1 to 50 nM | 0.1 to 25 nM |  |
| CCC(C)c1c(NC(=O)Nc2cnc(-n3nccn3)c(Cl)c2)cnc2sc(C)nc12 (single isomer, unassigned) [Compound 157b, 1-(7-(sec-Butyl)-2-methylthiazolo[5,4-b]pyridin-6-yl)-3-(5-chloro-6-(2H-1,2,3-triazol-2-yl)pyridin-3-yl)urea] | 1 to 50 nM | 26 to 100 nM |  |
| COc1ncc(NC(=O)Nc2cnc3sc(C)nc3c2C(C)OC)cc1Cl (single isomer, unassigned) [Compound 159a, 1-(5-Chloro-6-methoxypyridin-3-yl)-3-(7-(1-methoxyethyl)-2-methylthiazolo[5,4-b]pyridin-6-yl)urea] | 1 to 50 nM | 26 to 100 nM |  |
| COC(C)c1c(NC(=O)Nc2cnc(-n3cccn3)c(Cl)c2)cnc2sc(C)nc12 (single isomer, unassigned) [Compound 196b, (S) or (R)-1-(5-chloro-6-(1H-pyrazol-1-yl)pyridin-3-yl)-3-(7-(1-methoxyethyl)-2-methylthiazolo[5,4-b]pyridin-6-yl)urea] | 1 to 50 nM | 26 to 100 nM |  |
| COCCN(C)c1c(NC(=O)Nc2cnc(-n3nccn3)c(Cl)c2)cnc2sc(C)nc12 [Compound 44, 1-(5-Chloro-6-(2H-1,2,3-triazol-2-yl)pyridin-3-yl)-3-(7-((2-methoxyethyl)(methyl)amino)-2-methylthiazolo[5,4-b]pyridin-6-yl)urea] |  | 101 to 250 nM | 101 to 500 nM |
| COc1ncc(NC(=O)Nc2cnc3sc(C)nc3c2N(C)CC(C)OC)cc1Cl (stereo not shown) [Compound 55a, 1-(5-Chloro-6-methoxypyridin-3-yl)-3-(7-((2-methoxypropyl)(methyl)amino)-2-methylthiazolo[5,4-b]pyridin-6-yl)urea] |  | 101 to 250 nM | 501 to 1500 nM |
| CCC(c1c(NC(=O)Nc2cnc(-n3nccn3)c(C(F)(F)F)c2)cnc2sc(C)nc12)N(C)C (stereo not shown) [Compound 75a, 1-(6-(2H-1,2,3-Triazol-2-yl)-5-(trifluoromethyl)pyridin-3-yl)-3-(7-(1-(dimethylamino)propyl)-2-methylthiazolo[5,4-b]pyridin-6-yl)urea] |  | 501 to 1500 nM | 101 to 500 nM |
| COC(c1c(NC(=O)Nc2cnc(-n3nccn3)c(Cl)c2)cnc2sc(C)nc12)C(C)C (stereo not shown) [Compound 79a, 1-(5-Chloro-6-(2H-1,2,3-triazol-2-yl)pyridin-3-yl)-3-(7-(1-methoxy-2-methylpropyl)-2-methylthiazolo[5,4-b]pyridin-6-yl)urea] |  | 101 to 250 nM | 101 to 500 nM |
| COc1nc(-n2nccn2)c(C(F)(F)F)cc1NC(=O)Nc1cnc2sc(C)nc2c1C(OC)C(C)C (stereo not shown) [Compound 80a, 1-(7-(1-Methoxy-2-methylpropyl)-2-methylthiazolo[5,4-b]pyridin-6-yl)-3-(2-methoxy-6-(2H-1,2,3-triazol-2-yl)-5-(trifluoromethyl)pyridin-3-yl)urea] |  | 26 to 100 nM | 1 to 100 nM |
| COC(c1ccc(F)cc1)c1c(NC(=O)Nc2cnc(-n3nccn3)c(C(F)(F)F)c2)cnc2sc(C)nc12 (stereo not shown) [Compound 85b, 1-(6-(2H-1,2,3-Triazol-2-yl)-5-(trifluoromethyl)pyridin-3-yl)-3-(7-((4-fluorophenyl)(methoxy)methyl)-2-methylthiazolo[5,4-b]pyridin-6-yl)urea] |  | 251 to 500 nM | 1 to 100 nM |

Second part, led by results:

| IC50 (full length MALT1 enzyme) | IC50 (OCI-Ly-10 cells) | SMILES | IC50 [1] |
| --- | --- | --- | --- |
| 1 to 50 nM | 26 to 100 nM | COC(c1c(NC(=O)Nc2cnc(-n3nccn3)c(Cl)c2)cnc2sc(C)nc12)C(C)(C)C (single isomer, unassigned) [Compound 56b, 1-(5-chloro-6-(2H-1,2,3-triazol-2-yl)pyridin-3-yl)-3-(7-(1-methoxy-2,2-dimethylpropyl)-2-methylthiazolo[5,4-b]pyridin-6-yl)urea] |  |
| 51 to 100 nM | 26 to 100 nM | COc1ccc(Cl)cc1NC(=O)Nc1cnc2sc(C)nc2c1C(C)OC (single isomer, unassigned) [Compound 128b, 1-(5-Chloro-2-methoxyphenyl)-3-(7-(1-methoxyethyl)-2-methylthiazolo[5,4-b]pyridin-6-yl)urea] |  |
| 1 to 50 nM | 26 to 100 nM | COC(C)c1c(NC(=O)Nc2ccc(-n3cccn3)c(Cl)c2)cnc2sc(C)nc12 (single isomer, unassigned) [Compound 201b, (S) or (R)-1-(3-Chloro-4-(1H-pyrazol-1-yl)phenyl)-3-(7-(1-methoxyethyl)-2-methylthiazolo[5,4-b]pyridin-6-yl)urea] |  |
|  | 26 to 100 nM | Cc1nc2c(N(C)CC3CC3)c(NC(=O)Nc3cnc(-n4nccn4)c(Cl)c3)cnc2s1 [Compound 42, 1-(5-Chloro-6-(2H-1,2,3-triazol-2-yl)pyridin-3-yl)-3-(7-((cyclopropylmethyl)(methyl)amino)-2-methylthiazolo[5,4-b]pyridin-6-yl)urea] | 1 to 100 nM |
|  | 101 to 250 nM | COCCN(c1c(NC(=O)Nc2cnc(-n3nccn3)c(C(F)(F)F)c2)cnc2sc(C)nc12)C1CC1 [Compound 69, 1-(6-(2H-1,2,3-Triazol-2-yl)-5-(trifluoromethyl)pyridin-3-yl)-3-(7-(cyclopropyl (2-methoxyethyl)amino)-2-methylthiazolo[5,4-b]pyridin-6-yl)urea] | 1 to 100 nM |
|  | 0.1 to 25 nM | COC(c1c(NC(=O)Nc2cnc(-n3nccn3)c(C(F)(F)F)c2)cnc2sc(C)nc12)C1CCC1 (stereo not shown) [Compound 224b, 1-(6-(2H-1,2,3-Triazol-2-yl)-5-(trifluoromethyl)pyridin-3-yl)-3-(7-(cyclobutyl(methoxy)methyl)-2-methylthiazolo[5,4-b]pyridin-6-yl)urea] | 1 to 100 nM |
|  | 26 to 100 nM | COC(c1c(NC(=O)Nc2cnc(-n3nccn3)c(Cl)c2)cnc2sc(C)nc12)C1CCC1 (stereo not shown) [Compound 225b, 1-(5-Chloro-6-(2H-1,2,3-triazol-2-yl)pyridin-3-yl)-3-(7-(cyclobutyl(methoxy)methyl)-2-methylthiazolo[5,4-b]pyridin-6-yl)urea] | 1 to 100 nM |
|  | 26 to 100 nM | CCOc1nc(-n2nccn2)c(C(F)(F)F)cc1NC(=O)Nc1cnc2sc(C)nc2c1C(OC)C1CC1 (stereo not shown) [Compound 226a, 1-(7-(Cyclopropyl(methoxy)methyl)-2-methylthiazolo[5,4-b]pyridin-6-yl)-3-(2-ethoxy-6-(2H-1,2,3-triazol-2-yl)-5-(trifluoromethyl)pyridin-3-yl)urea] | 1 to 100 nM |
